One assay has as its target T1, Pim-3 (Homo sapiens, UniProt Q86V86).
T1 construct: full-length human recombinant His6-labelled Pim-1, Pim-2 or Pim-3 protein; His6; made in house
The experiment in a line: TR-FRET assay of Pim kinase activity (phosphorylation of Bad Ser112), Pim-3. Type of assay: biochemical. Particulars: ATP 40 μM, read-out: IC50 Pim3. On the procedure:
(§1) In order to determine the inhibition of Pim kinase activity, the compounds of the invention are tested in accordance with a routinely-used in-vitro TR-FRET assay (“Time Resolved-Fluorescence Resonance Energy Transfer”). […] For the assay, the following reagents are used:
(§2) Pim kinase—full-length human recombinant His6-labelled Pim-1, Pim-2 or Pim-3 protein (prepared according to J. Mol. Biol. (2005) 348, 183-193); Bad—full-length human recombinant His6-labelled Bad protein (prepared according to J. Mol. Biol. (2005) 348, 183-193); α-His6-APC—mouse monoclonal antibody conjugated to allophycocyanine SureLight™ directed against the His6 label (Perkin-Elmer, No. AD0059H, Waltham, Mass., United States); α-P˜Bad-Eu—mouse monoclonal antibody (Cell Signaling Technology #9296B, Danvers, Mass., United States) directed against phosphoBad (Ser112) (7E11) labelled on request by Perkin-Elmer with the reagent LANCE™ Eu-W1024.
(§3) The assay is based on the LANCE™ technology from Perkin-Elmer: the Eu-labelled antibody binds to phospho-Ser112 and generates a TR-FRET signal by interaction with the […] antibody directed against His6, bound to the His6 label of Bad. The TR-FRET signal is detected using a SpectraMax M5 plate reader (Molecular Devices) with the following settings: λex=340 nm, λem1=615 nm, λem2=665 nm. The ratio of the fluorescence signal at 665 nm to the fluorescence signal at 615 nm is used as the signal reading for the IC50 (calculations based on the 4-parameter logistic model). The assay is performed in 384-well format; the liquid manipulations are performed using a Beckmann 3000 liquid manipulation station. The test compounds are tested at 10 concentration points in duplicate; the highest concentration of compound is typically equal to 30 μM. The ATP concentration is equal to 40 μM.
Background: TR-FRET usually uses a lanthanide donor and a delayed reading to cut background.

Another assay addresses CDK1 (Homo sapiens, UniProt P06493). The experiment in a line: Biochemical results, IC50 CDK1.
A further assay concerns the target PLK1 (Homo sapiens, UniProt P53350). Put plainly: Biochemical results, IC50 PLK1.
A further assay deals with T2, Pim-2 (Homo sapiens, UniProt Q9P1W9).
T2 construct: full-length human recombinant His6-labelled Pim-1, Pim-2 or Pim-3 protein; His6; made in house
T2 sequence (Q9P1W9 whole entry): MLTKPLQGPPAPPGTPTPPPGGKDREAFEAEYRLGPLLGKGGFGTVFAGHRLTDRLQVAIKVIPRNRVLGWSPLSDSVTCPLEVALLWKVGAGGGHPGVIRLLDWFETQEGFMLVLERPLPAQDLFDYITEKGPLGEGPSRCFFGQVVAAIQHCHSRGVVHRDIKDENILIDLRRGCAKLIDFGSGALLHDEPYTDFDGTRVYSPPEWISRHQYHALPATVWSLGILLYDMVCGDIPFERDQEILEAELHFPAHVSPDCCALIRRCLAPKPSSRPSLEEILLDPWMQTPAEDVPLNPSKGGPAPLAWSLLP
The experiment in a line: TR-FRET assay of Pim kinase activity (phosphorylation of Bad Ser112), Pim-2. It counts as biochemical. Particulars: ATP 40 μM, read-out: IC50 Pim2. The method, then: as §1, §2, §3

Another assay concerns the target T3, Pim-1 (Homo sapiens, UniProt P11309).
T3 construct: full-length human recombinant His6-labelled Pim-1, Pim-2 or Pim-3 protein; His6; made in house
The experiment in a line: TR-FRET assay of Pim kinase activity (phosphorylation of Bad Ser112), Pim-1. Type of assay: biochemical. As to conditions: ATP 40 μM, read-out: IC50 Pim1. On the procedure: as §1, §2, §3

As usually defined, the IC50 is the concentration that inhibits the measured activity by half.

Each structure is given as a SMILES string. A value given as a limit tells only on which side of the number the result lay.

Sequence of CDK1 (P06493 whole entry, species assumed): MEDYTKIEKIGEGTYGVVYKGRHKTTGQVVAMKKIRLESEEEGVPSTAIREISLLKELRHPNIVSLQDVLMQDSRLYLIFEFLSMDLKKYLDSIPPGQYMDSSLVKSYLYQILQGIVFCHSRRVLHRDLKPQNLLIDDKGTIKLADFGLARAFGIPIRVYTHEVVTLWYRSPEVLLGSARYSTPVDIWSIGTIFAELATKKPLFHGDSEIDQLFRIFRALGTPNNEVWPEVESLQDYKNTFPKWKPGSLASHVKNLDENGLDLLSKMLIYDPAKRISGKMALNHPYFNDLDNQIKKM
Sequence of CDK1 (P14635 whole entry partner, species assumed): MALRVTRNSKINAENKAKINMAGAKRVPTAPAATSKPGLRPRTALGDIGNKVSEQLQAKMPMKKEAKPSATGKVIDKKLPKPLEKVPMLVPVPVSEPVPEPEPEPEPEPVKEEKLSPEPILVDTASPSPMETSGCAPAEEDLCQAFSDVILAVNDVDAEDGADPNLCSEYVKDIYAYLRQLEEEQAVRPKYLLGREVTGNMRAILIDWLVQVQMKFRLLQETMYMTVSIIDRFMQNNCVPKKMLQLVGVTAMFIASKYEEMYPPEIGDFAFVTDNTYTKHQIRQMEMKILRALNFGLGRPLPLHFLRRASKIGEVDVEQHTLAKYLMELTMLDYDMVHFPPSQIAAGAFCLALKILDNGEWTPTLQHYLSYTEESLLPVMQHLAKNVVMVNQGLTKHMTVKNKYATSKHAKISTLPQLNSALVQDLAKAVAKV
T3 sequence (P11309 whole entry): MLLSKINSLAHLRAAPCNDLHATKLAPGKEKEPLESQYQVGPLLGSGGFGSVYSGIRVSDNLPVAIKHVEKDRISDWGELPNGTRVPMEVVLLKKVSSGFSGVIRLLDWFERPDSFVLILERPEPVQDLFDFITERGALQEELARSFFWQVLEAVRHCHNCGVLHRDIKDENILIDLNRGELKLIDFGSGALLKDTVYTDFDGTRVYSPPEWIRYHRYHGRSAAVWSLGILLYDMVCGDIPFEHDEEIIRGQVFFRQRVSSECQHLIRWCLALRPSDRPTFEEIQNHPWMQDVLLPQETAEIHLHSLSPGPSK
Sequence of PLK1 (P53350 whole entry, species assumed): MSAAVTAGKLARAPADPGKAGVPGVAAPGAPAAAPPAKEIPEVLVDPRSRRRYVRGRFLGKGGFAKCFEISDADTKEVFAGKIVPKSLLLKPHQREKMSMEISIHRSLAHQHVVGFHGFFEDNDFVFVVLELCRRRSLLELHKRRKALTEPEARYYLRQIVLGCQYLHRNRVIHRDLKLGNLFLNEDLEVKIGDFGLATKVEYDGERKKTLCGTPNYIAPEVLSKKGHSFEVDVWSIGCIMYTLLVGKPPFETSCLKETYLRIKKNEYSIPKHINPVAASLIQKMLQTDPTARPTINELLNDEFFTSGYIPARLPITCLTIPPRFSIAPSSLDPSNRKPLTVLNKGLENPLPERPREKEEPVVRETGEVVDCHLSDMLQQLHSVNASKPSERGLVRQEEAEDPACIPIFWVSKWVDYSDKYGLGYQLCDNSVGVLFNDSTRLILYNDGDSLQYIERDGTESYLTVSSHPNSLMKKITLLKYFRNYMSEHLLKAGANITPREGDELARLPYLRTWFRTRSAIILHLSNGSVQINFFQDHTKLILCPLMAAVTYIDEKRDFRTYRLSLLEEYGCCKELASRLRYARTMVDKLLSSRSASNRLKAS

Take `CCN1CCCC(NC(=O)c2ccc(-c3c(F)cnc4[nH]c5cnc(-c6cccnc6)cc5c34)cc2)C1` (stereo not shown) [Example 54, N-(1-ethylpiperidin-3-yl)-4-[3-fluoro-6-(pyridin-3-yl)-9H-pyrrolo[2,3-b:5,4-c′]dipyridin-4-yl]benzamide]: the IC50 on Pim-3 was under 100 nM; on CDK1 it was 100 to 1000 nM; against PLK1 it was 100 to 1000 nM; on Pim-2 it was 100 to 1000 nM; at Pim-1 it was under 100 nM.
In the case of `CC1CCCCN1CCNC(=O)c1ccc(-c2c(F)cnc3[nH]c4cnc(-c5cccnc5)cc4c23)cc1` (stereo not shown) [Example 55, 4-[3-fluoro-6-(pyridin-3-yl)-9H-pyrrolo[2,3-b:5,4-c′]dipyridin-4-yl]-N-[2-(2-methylpiperidin-1-yl)ethyl]benzamide], the IC50 on Pim-3 is under 100 nM; against CDK1, 100 to 1000 nM; at PLK1, 100 to 1000 nM; at Pim-2, 100 to 1000 nM; on Pim-1 it was under 100 nM.
On to `CN(C)C1CCCN(C(=O)c2ccc(-c3c(F)cnc4[nH]c5cnc(-c6cccnc6)cc5c34)cc2)C1` (stereo not shown) [Example 57, [3-(dimethylamino)piperidin-1-yl]{4-[3-fluoro-6-(pyridin-3-yl)-9H-pyrrolo[2,3-b:5,4-c′]dipyridin-4-yl]phenyl}methanone], for which the concentration for half-maximal inhibition (IC50) at Pim-3 is under 100 nM; against CDK1, 100 to 1000 nM; against PLK1 it was 100 to 1000 nM; at Pim-2 it was 1000 to 5000 nM; on Pim-1, under 100 nM.
As to `CC(C)(CNC(=O)c1ccc(-c2c(F)cnc3[nH]c4cnc(-c5cccnc5)cc4c23)cc1)N1CCCC1` [Example 58, 4-[3-fluoro-6-(pyridin-3-yl)-9H-pyrrolo[2,3-b:5,4-c′]dipyridin-4-yl]-N-[2-methyl-2-(pyrrolidin-1-yl)propyl]benzamide], the IC50 is under 100 nM on Pim-3; 1000 to 5000 nM against CDK1; 100 to 1000 nM at PLK1; 100 to 1000 nM at Pim-2; under 100 nM at Pim-1.
For the compound `O=C(NCCN1CCCCCC1)c1ccc(-c2c(F)cnc3[nH]c4cnc(-c5cccnc5)cc4c23)cc1` [Example 60, N-[2-(azepan-1-yl)ethyl]-4-[3-fluoro-6-(pyridin-3-yl)-9H-pyrrolo[2,3-b:5,4-c′]dipyridin-4-yl]benzamide], the IC50 on Pim-3 was under 100 nM; against CDK1, 100 to 1000 nM; at PLK1 it was 100 to 1000 nM; on Pim-2 it was 100 to 1000 nM; at Pim-1, under 100 nM.
For the compound `CS(=O)(=O)NCCNC(=O)c1ccc(-c2c(F)cnc3[nH]c4cnc(-c5cccnc5)cc4c23)cc1` [Example 62, 4-[3-fluoro-6-(pyridin-3-yl)-9H-pyrrolo[2,3-b:5,4-c′]dipyridin-4-yl]-N-{2-[(methylsulfonyl)amino]ethyl}benzamide], the half-inhibitory concentration (IC50) on Pim-3 was under 100 nM; at CDK1 it was 100 to 1000 nM; at PLK1, 100 to 1000 nM; at Pim-2 it was 1000 to 5000 nM; at Pim-1, under 100 nM.
Take `CN1CCCC1CCNC(=O)c1ccc(-c2c(F)cnc3[nH]c4cnc(-c5cccnc5)cc4c23)cc1` (stereo not shown) [Example 65, 4-[3-fluoro-6-(pyridin-3-yl)-9H-pyrrolo[2,3-b:5,4-c′]dipyridin-4-yl]-N-[2-(1-methylpyrrolidin-2-yl)ethyl]benzamide]: the 50% inhibitory concentration (IC50) was under 100 nM on Pim-3; 1000 to 5000 nM against CDK1; 100 to 1000 nM at PLK1; 100 to 1000 nM at Pim-2; under 100 nM on Pim-1.
For `CCN(CCN(C)C)C(=O)c1ccc(-c2c(F)cnc3[nH]c4cnc(-c5cccnc5)cc4c23)cc1` [Example 67, N-[2-(dimethylamino)ethyl]-N-ethyl-4-[3-fluoro-6-(pyridin-3-yl)-9H-pyrrolo[2,3-b:5,4-c′]dipyridin-4-yl]benzamide], the IC50 is under 100 nM at Pim-3; 1000 to 5000 nM at CDK1; 100 to 1000 nM against PLK1; under 100 nM at Pim-2; under 100 nM on Pim-1.
In the case of `CN(C)[C@H]1CCN(C(=O)c2ccc(-c3c(F)cnc4[nH]c5cnc(-c6cccnc6)cc5c34)cc2)C1` [Example 69, [(3S)-3-(dimethylamino)pyrrolidin-1-yl]{4-[3-fluoro-6-(pyridin-3-yl)-9H-pyrrolo[2,3-b:5,4-c′]dipyridin-4-yl]phenyl}methanone], the IC50 was under 100 nM at Pim-3; 100 to 1000 nM at CDK1; 100 to 1000 nM at PLK1; 100 to 1000 nM on Pim-2; under 100 nM at Pim-1.
As for `CN1CCC(N(C)C(=O)c2ccc(-c3c(F)cnc4[nH]c5cnc(-c6cccnc6)cc5c34)cc2)C1` (stereo not shown) [Example 70, 4-[3-fluoro-6-(pyridin-3-yl)-9H-pyrrolo[2,3-b:5,4-c′]dipyridin-4-yl]-N-methyl-N-(1-methylpyrrolidin-3-yl)benzamide], the IC50 on Pim-3 was 100 to 1000 nM; on CDK1, 1000 to 5000 nM; against PLK1 it was 1000 to 5000 nM; on Pim-2 it was 1000 to 5000 nM; on Pim-1 it was under 100 nM.
`CCN(CC)CCN(C)C(=O)c1ccc(-c2c(F)cnc3[nH]c4cnc(-c5cccnc5)cc4c23)cc1` [Example 71, N-[2-(diethylamino)ethyl]-4-[3-fluoro-6-(pyridin-3-yl)-9H-pyrrolo[2,3-b:5,4-c′]dipyridin-4-yl]-N-methylbenzamide]: the half-maximal inhibitory concentration (IC50) on Pim-3 is under 100 nM; against CDK1, 1000 to 5000 nM; against PLK1 it was 1000 to 5000 nM; on Pim-2, 1000 to 5000 nM; on Pim-1 it was under 100 nM.
Regarding `COCCN1CCN(C(=O)c2ccc(-c3c(F)cnc4[nH]c5cnc(-c6cccnc6)cc5c34)cc2)CC1` [Example 72, {4-[3-fluoro-6-(pyridin-3-yl)-9H-pyrrolo[2,3-b:5,4-c′]dipyridin-4-yl]phenyl}[4-(2-methoxyethyl)piperazin-1-yl]methanone], the concentration for half-maximal inhibition (IC50) was 100 to 1000 nM at Pim-3; 1000 to 5000 nM at CDK1; 100 to 1000 nM on PLK1; over 5000 nM at Pim-2; 100 to 1000 nM on Pim-1.
As to `Cc1n[nH]cc1CNC(=O)c1ccc(-c2c(F)cnc3[nH]c4cnc(-c5cccnc5)cc4c23)cc1` [Example 73, 4-[3-fluoro-6-(pyridin-3-yl)-9H-pyrrolo[2,3-b:5,4-c′]dipyridin-4-yl]-N-[(3-methyl-1H-pyrazol-4-yl)methyl]benzamide], the IC50 on Pim-3 was under 100 nM; on CDK1, 100 to 1000 nM; against PLK1 it was under 100 nM; at Pim-2, 100 to 1000 nM; at Pim-1, under 100 nM.
Consider `CN1CC2CCN(C(=O)c3ccc(-c4c(F)cnc5[nH]c6cnc(-c7cccnc7)cc6c45)cc3)CC2C1` (stereo not shown) [Example 74, {4-[3-fluoro-6-(pyridin-3-yl)-9H-pyrrolo[2,3-b:5,4-c′]dipyridin-4-yl]phenyl}(2-methyloctahydro-5H-pyrrolo[3,4-c]pyridin-5-yl)methanone], for which the IC50 on Pim-3 is under 100 nM; on CDK1, 1000 to 5000 nM; against PLK1, 100 to 1000 nM; at Pim-2, 100 to 1000 nM; on Pim-1, under 100 nM.
As to `O=C(NCc1ncc[nH]1)c1ccc(-c2c(F)cnc3[nH]c4cnc(-c5cccnc5)cc4c23)cc1` [Example 76, 4-[3-fluoro-6-(pyridin-3-yl)-9H-pyrrolo[2,3-b:5,4-c′]dipyridin-4-yl]-N-(1H-imidazol-2-ylmethyl)benzamide], the half-maximal inhibitory concentration (IC50) at Pim-3 is under 100 nM; against CDK1, 100 to 1000 nM; against PLK1, under 100 nM; on Pim-2 it was 100 to 1000 nM; at Pim-1, under 100 nM.
`CN1CCC2(CCN(C(=O)c3ccc(-c4c(F)cnc5[nH]c6cnc(-c7cccnc7)cc6c45)cc3)C2)C1` (stereo not shown) [Example 77, {4-[3-fluoro-6-(pyridin-3-yl)-9H-pyrrolo[2,3-b:5,4-c′]dipyridin-4-yl]phenyl}(7-methyl-2,7-diazaspiro[4.4]non-2-yl)methanone]: the IC50 at Pim-3 was under 100 nM; at CDK1, 1000 to 5000 nM; on PLK1 it was 1000 to 5000 nM; at Pim-2, 1000 to 5000 nM; at Pim-1, under 100 nM.
On to `O=C(NCCNc1ccccn1)c1ccc(-c2c(F)cnc3[nH]c4cnc(-c5cccnc5)cc4c23)cc1` [Example 78, 4-[3-fluoro-6-(pyridin-3-yl)-9H-pyrrolo[2,3-b:5,4-c′]dipyridin-4-yl]-N-[2-(pyridin-2-ylamino)ethyl]benzamide], for which the IC50 on Pim-3 is under 100 nM; against CDK1, 100 to 1000 nM; against PLK1 it was under 100 nM; at Pim-2, 100 to 1000 nM; on Pim-1, under 100 nM.

Source of the values: US20120208809A1, “9H-PYRROLO[2,3-B: 5,4-C'] DIPYRIDINE AZACARBOLINE DERIVATIVES, PREPARATION THEREOF, AND THERAPEUTIC USE THEREOF” (SANOFI, priority 2009, published 2012).
